Article PMC6876276 (Cell Chemical Biology, 2019)

Biological target: T1, SHMT1 (Homo sapiens, UniProt P34896)
T1 sequence (P34896 2-483): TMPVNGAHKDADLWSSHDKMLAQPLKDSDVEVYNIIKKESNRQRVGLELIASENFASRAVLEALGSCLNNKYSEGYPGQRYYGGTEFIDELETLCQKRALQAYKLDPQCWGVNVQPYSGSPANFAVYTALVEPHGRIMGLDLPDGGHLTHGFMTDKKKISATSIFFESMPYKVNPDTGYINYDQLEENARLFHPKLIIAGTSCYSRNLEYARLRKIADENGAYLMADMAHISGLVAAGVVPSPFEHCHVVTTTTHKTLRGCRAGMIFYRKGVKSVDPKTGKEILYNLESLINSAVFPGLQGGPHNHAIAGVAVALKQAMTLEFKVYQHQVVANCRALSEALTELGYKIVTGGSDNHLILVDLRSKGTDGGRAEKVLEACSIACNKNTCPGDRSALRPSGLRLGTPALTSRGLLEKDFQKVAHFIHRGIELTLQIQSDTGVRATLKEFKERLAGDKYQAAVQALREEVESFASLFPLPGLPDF
Assay: thermal shift assay, SYPRO orange
Format: binding
Conditions: 2 μM apo-SHMT1, SEC buffer; covalent internal aldimine (reversible)

`Cc1ncc(COP(=O)(O)O)c(C=O)c1O` [PLP, pyridoxal 5′-phosphate] was tested, and the melting temperature was “selective increase in melting temperature of apo-SHMT1 upon incubation with increasing PLP amounts”.
